How the values were obtained:
Porcine Coronary Model = conditions: stent coated with agent solubilized in eicosapentaenoic acid oil vs eicosapentaenoic acid oil coated stents; cited from earlier work
[1] = Maximum solubility / drug loading of therapeutic agent in vitamin E / bio-absorbable carrier base coating (crystal inspection after solvent removal); type: physicochemical; conditions: for maximum solubility: NMP
From the text: The amount of solvent that can be included in compositions of the present invention is not particularly limited. In accordance with one embodiment of the present invention, the amount of the therapeutic agent to be dissolved can be an amount up to the maximum amount that can be dissolved in the solvent, vitamin E compound and the bio-absorbable carrier component. The maximum amount of the therapeutic agent that can be dissolved is readily determined by simple mixing, as the presence of any non-dissolved therapeutic agent is apparent after solvent removal on visual inspection. In various embodiments, the amount of the therapeutic agent will be less than the maximum that can be dissolved. Upon administration to a subject of the therapeutic agent dissolved in the bio-absorbable carrier and the solvent, the amount of the given solvent can be limited to a pharmaceutically acceptable amount, which can be readily determined by one of skill in the art. In various aspects, it can be appropriate to include amounts of solvents in excess of pharmaceutically acceptable amounts, with excess solvent removed prior to providing the administration of the composition using conventional techniques such as evaporation.
Referring again to FIG. 1, the ratio of a vitamin E compound and the bio-absorbable carrier component is then determined (step 130). […] The bio-absorbable carrier component can include fish oil, fish oil mono, di and triglycerides, free fatty acids, fatty acid esters, partially oxidized oil, or hydrolyzed oil and any derivatives. After the formulations are made the solvent is removed from the sample under vacuum and the drug formulation is inspected under a microscope for crystal formation. The level of soluble drug can be influenced by such factors as vitamin E level, fish oil level, fatty acid ester content, free fatty acid content, mono, di or triglyceride content, presence of oxidation, or by hydrolysis byproducts of the oil. The amount of soluble drug can also be effected by the solvent and/or solvent loading that is used to load the drug into the formulation.
Referring again to FIG. 1, the bio-absorbable carrier component and the vitamin E compound or a combination thereof are provided (step 130). In accordance with one aspect of the present invention, the bio-absorbable carrier component and the vitamin E compound can be mixed together, for example, by vortexing, sonicating, stirring, rolling, or shaking, to form a second mixture (step 140). Accordingly, the second mixture can be mixed first, the first mixture can be mixed first, or the first mixture and the second mixture can be mixed substantially simultaneously. The first mixture and the second mixture can then be mixed (step 150) such that the therapeutic agent is dissolved, or, if the therapeutic agent was previously dissolved in the solvent, the therapeutic agent remains dissolved. After mixing the first mixture and the second mixture, the solvent is removed by techniques well known in the art, for example, by vacuum, washing, heating, evaporation and the like (step 160). Upon removal of the solvent, the resulting solution can be inspected for presence of crystal formation by techniques well known in the art (step 170). Suitable techniques for inspection for the presense of crystal formation include, for example, visual inspection, microscopic inspections, as well as chemical analysis techniques such as scanning electron microscopy (SEM), environmental scanning electron microscopy (ESEM), differential scanning calorimetry (DSC) and atomic force microscopy (AFM).
A bio-absorbable carrier component in combination with a vitamin E compound was made by mixing 1.5 grams of vitamin E and 3.5 grams of fish oil to form a base coating (30% vitamin E). A sample was then prepared by first dissolving 28 mg of rapamycin in 529 mg of NMP (N-methyl-2-pyrrolidone).

With `C=C1[C@@H](C)[C@H]2[C@H](Cc3ccccc3)NC(=O)[C@]23[C@H](OC(C)=O)/C=C/[C@@](C)(O)C(=O)[C@@H](C)C/C=C/[C@H]3[C@@H]1O` [cytochalasin D] as the molecule, how does the “less area stenosis compared to the control group” value (Porcine Coronary Model) read?
Its value is 38%.

What about the “less intimal hyperplasia compared to the control group” value (Porcine Coronary Model) of the same molecule?
Its value is 39%.

Which “maximum level of drug loading attainable before crystals began to form after drying” value (shortened to “maximum level”) ([1]; 70% vitamin E/30% fish oil base coat, drug loaded from ethanol) does the source give for `CC(=O)O[C@H]1C(=O)[C@@]2(C)[C@H]([C@H](OC(=O)c3ccccc3)[C@]3(O)C[C@H](OC(=O)[C@H](O)[C@@H](NC(=O)c4ccccc4)c4ccccc4)C(C)=C1C3(C)C)[C@]1(OC(C)=O)CO[C@@H]1C[C@@H]2O` [paclitaxel] here?
The value was 4.9%.

What about the “dissolution state of drug in coating after drying” value (shortened to “dissolution state of drug”) ([1]; 70% vitamin E/30% fish oil, 4.9% by weight loading using N-methyl-2-pyrrolidone) of the same molecule?
Its value is “not totally dissolved”.

And the “dissolution state of drug” value ([1]; 70% vitamin E/30% fish oil, 5% by weight loading using ethanol)?
The value was “completely dissolved”.

Which maximum solubility ([1]; 70% vitamin E and 30% fish oil fatty acid formulation) does the source give for `COc1ccc2[nH]cc(CCNC(C)=O)c2c1` [melatonin] here?
The maximum solubility was “greater than 28%”.

And the maximum solubility ([1]; 70% vitamin E and 30% fish oil formulation)?
Its maximum solubility is 11.5%.

What about the “dissolution state of drug” value ([1]; 70% vitamin E and 30% fish oil, 9% by weight loading using N-methyl-2-pyrrolidone) of the same molecule?
Its value is “totally dissolved”.

And the “dissolution state of drug” value ([1]; 70% vitamin E and 30% fish oil, 9% by weight loading using ethanol)?
The value was “forms crystals”.

And the “maximum level” value ([1]; 70% vitamin E/30% fish oil base coat, drug loaded from NMP)?
Its value is 11.5%.

And the “maximum level” value ([1]; 70% vitamin E/30% fish oil fatty acids (FOFA) base coat, drug loaded from NMP)?
The value was 28%.

Source: US20060088596A1, “Solubilizing a drug for use in a coating” (ATRIUM MEDICAL CORPORATION, priority 2004, published 2006)
